Here are results for nine compounds from article PMC12786078, “Identification of Novel JAK2 Inhibitors from Amino Derivatives of Epoxyalantolactone: In Silico and In Vitro Studies” (International Journal of Molecular Sciences, 2025).

In one series the test system is L929 fibroblasts. As to the kind of experiment: MTT cytotoxicity assay. The settings on record: read-out: IC50 L929. In general terms: Tetrazolium assays rely on reduction of a dye to a coloured formazan, in cell work by metabolically active cells.
Another series concerns the target T1, JAK2 (Homo sapiens, UniProt O60674).
T1 construct: purchased Sigma-Aldrich SRP0171
As to the kind of experiment: JAK2 kinase assay (ADP-Glo). It counts as biochemical. Particulars: 5 μM ATP, mean ± SEM, read-out: IC50, JAK2 kinase inhibition. On the procedure:
For each reaction, 2.5 ng/μL of JAK2 enzyme (SRP0171, Sigma-Aldrich) was combined with 1 μM of the test compounds or known drugs, 5 μM ATP, and 2 ng/μL of poly(glu·tyr) substrate in a reaction buffer containing 40 mM Tris-HCl (pH 7.5), 20 mM MgCl2, and 0.1 mg/mL BSA. The reaction mixture was incubated at room temperature for 1 h. After incubation, 5 μL of the ADP-Glo reagent was added to each reaction, followed by an additional 40 min incubation. Next, 10 μL of the kinase detection reagent was added, and the reactions were incubated at room temperature for 30 min to convert ADP to ATP. Luminescence, reflecting ATP levels, was measured using an EnSight Multimode Microplate Reader. […] All assays were performed in triplicate, and the resulting data were presented as the relative inhibition (%) of inhibitors compared to the control without any inhibitor, as shown in Equation (1).(1) %Relative inhibition=[positive−negative−sample−negative]/(positive−negative)×100
(In general: ADP-Glo turns the ADP formed in a reaction into a luminescent signal.)

The subject of series [1] is HeLa cells. As to the kind of experiment: MTT cytotoxicity assay. Particulars: 48 h.
Procedure: (§1) Human cervical adenocarcinoma (HeLa), hepatocellular carcinoma (HepG2) and mouse fibroblast (L929) cells were cultured in Dulbecco’s Modified Eagle’s Medium (DMEM) containing 10% fetal bovine serum (FBS), 100 U/mL penicillin G, and 100 μg/mL streptomycin. Human neuroblastoma (SH-SY5Y) cells were maintained in DMEM/F-12 medium with the same supplements. All cultures were incubated at 37 °C in a humidified atmosphere of 5% CO2.
(§2) Cells were seeded in 96-well plates at a density of 5 × 10^3 cells per well in 100 µL of complete DMEM and incubated overnight at 37 °C in a humidified incubator with 5% CO2. […] After 48 h of treatment, 100 µL of MTT solution (0.5 mg/mL in serum-free medium) was added to each well and incubated for an additional 3 h at 37 °C. The supernatant was then removed, and 100 µL of DMSO was added to dissolve the resulting formazan crystals. Absorbance was measured at 570 nm using an EnSight Multimode Microplate Reader (PerkinElmer, Waltham, MA, USA). IC50 values were calculated using nonlinear regression analysis in GraphPad Prism version 9.
In the next series the test system is HepG2 cells. As to the kind of experiment: MTT cytotoxicity assay. Particulars: read-out: IC50 HepG2.
For series [2], the system named is SH-SY5Y neuroblastoma cells. As to the kind of experiment: MTT cytotoxicity assay. The settings on record: read-out: IC50 SH-SY5Y, 48 h.
Procedure: as §1, §2
In a further series the test system is HEK-293T cells. As to the kind of experiment: MTT cytotoxicity assay. The settings on record: read-out: IC50 HEK-293T.
Series [3] relates to HeLa cells. As to the kind of experiment: DCFH2-DA intracellular ROS assay. The class given is cell-based, human. On the procedure: After 24 h, the cells were incubated with 100 µL of 10 µM DCFH2-DA (Sigma-Aldrich) diluted in Hank’s Balanced Salt Solution (HBSS) at 37 °C for 30 min in the dark. […] At the end of the treatment, cells were washed twice with cold phosphate-buffered saline (PBS), and 200 µL of 1% Triton X-100 in 0.3 M NaOH was added to lyse the cells.

In series [4] the test system is HeLa cells. As to the kind of experiment: Annexin V-FITC/PI apoptosis detection by flow cytometry. In general terms: In flow cytometry, cells or beads pass a laser one at a time.
Procedure: (§3) HeLa cells were seeded in 6-well plates at a density of 3 × 10^5 cells per well in 2 mL of complete DMEM and allowed to adhere overnight. […] Following treatment, cells were harvested by trypsinization and washed twice with 1 mL of cold phosphate-buffered saline (PBS) to remove non-adherent and dead cells. The cell pellets were resuspended in 100 µL of binding buffer and stained with 5 µL of Annexin V-FITC and 5 µL of propidium iodide (PI, 0.05 µg/mL). The staining was performed in the dark at room temperature for 15 min. Apoptotic cell death was quantified by flow cytometry, with early and late apoptotic populations distinguished based on Annexin V-FITC and PI fluorescence signals.
Assay in series [5]: as above
Procedure: as §3
Particulars: human, HeLa cells.

[6] abbreviates: IC50 concentration of the compound.
Setting [7] is: HeLa, 48 h, at IC50 (SL10 8 µM, SL35 6 µM, ruxolitinib 25 µM).

“And” between values parts separate entries of the source, which are not always exact repeats. Identical values can stand only once. Like-named read-outs stand apart in the source and are kept apart here.

T1 sequence (O60674 808-1132 limits assumed): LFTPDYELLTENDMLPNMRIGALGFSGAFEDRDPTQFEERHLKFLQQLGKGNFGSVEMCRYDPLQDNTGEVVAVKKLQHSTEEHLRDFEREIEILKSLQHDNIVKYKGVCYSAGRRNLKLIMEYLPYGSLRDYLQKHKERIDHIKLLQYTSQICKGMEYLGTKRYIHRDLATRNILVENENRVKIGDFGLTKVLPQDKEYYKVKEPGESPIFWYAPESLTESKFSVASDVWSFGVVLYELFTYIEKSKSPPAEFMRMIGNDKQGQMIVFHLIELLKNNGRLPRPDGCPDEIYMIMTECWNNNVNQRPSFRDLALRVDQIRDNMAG
Procedure for HEK-293T cells: as §2
Procedure for HepG2 cells: as §1, §2
Procedure for L929 fibroblasts: as §1, §2

What is called IC50 is the concentration at which inhibition is half-maximal. On to `Cc1cccc(N2CCN(CC3C(=O)OC4CC5(C)CCCC(C)C56OC6C43)CC2)c1` (stereo not drawn) [SL31], for which the IC50 in the series with L929 fibroblasts (MTT, 48 h) came to 62.8 ± 3.39 µM; on JAK2, 0.0893 ± 0.0015 µM; with HeLa cells [1] (read-out: IC50 HeLa, MTT), 13.7 µM; in the series with HepG2 cells (MTT, 48 h), 19.62 ± 0.05 µM; in series [2] (MTT) it was 24.2 ± 1.69 µM; in the series on HEK-293T cells (MTT), 24.5 ± 1.12 µM.
Consider `CC1CCCC2(C)CC3OC(=O)C(CN4CCN(c5ccc(F)cc5)CC4)C3C3OC132` (stereo not drawn) [SL14], for which the IC50 in the series with L929 fibroblasts (MTT, 48 h) is 52.8 ± 1.92 µM; at JAK2, 0.0576 ± 0.0012 µM; in the series on HeLa cells [1] (read-out: IC50 HeLa, MTT), 13.2 µM; with HepG2 cells (MTT, 48 h), 27.5 ± 0.73 µM; in [2] (MTT) it was 35.8 ± 2.13 µM; in the series on HEK-293T cells (MTT), 50.9 ± 3.3 µM.
With `CC1CCCC2(C)CC3OC(=O)C4CN(CCc5c[nH]c6ccccc56)C(C34)C12O` (stereo not drawn) [SL33], the IC50 in the series on L929 fibroblasts (MTT, 48 h) came out at 40.5 ± 2.22 µM; on JAK2, 0.0791 ± 0.0018 µM; with HeLa cells [1] (read-out: IC50 HeLa, MTT) it was 33.8 ± 2.8 µM; in the series with HeLa cells [1] (read-out: IC50 HeLa, MTT, listed as SLL33) it was 33.8 ± 2.78 µM; in the series on HepG2 cells (MTT, 48 h), 45.28 ± 0.41 µM; in series [2] (MTT), 58.6 ± 0.71 µM. In the series on HEK-293T cells (MTT), the IC50 was determined as 29.3 ± 0.96 µM.
In the case of `CC1CCCC2(C)CC3OC(=O)C(CN4CCN(c5ncccn5)CC4)C3C3OC132` (stereo not drawn) [SL35], the IC50 in the series on L929 fibroblasts (MTT, 48 h) is 23.1 µM; at JAK2 it was 0.0217 µM and 0.0216 µM; with HeLa cells [1] (read-out: IC50 HeLa, MTT) it was 6.07 ± 0.11 µM; in the series with HepG2 cells (MTT, 48 h), 13.3 µM; in series [2] (MTT), 19.2 µM and 19.3 µM; in the series on HEK-293T cells (MTT), 14.6 ± 1.05 µM. Besides, the “intracellular ROS level relative to control” value in the series on HeLa cells [3] (setting [6]) is on record as “around 2.0 fold”. Moreover, the viable cells in the series with HeLa cells [4] stood at 66.19 ± 1.51%. In the series with HeLa cells [4] (setting [7]), the early apoptosis is given as 26.30 ± 1.69%. Moreover, the late apoptosis with HeLa cells [4] (setting [7]) was 5.20 ± 0.34%.
A word on the viability: it is the share of living cells, or the viability signal relative to a control. Consider `N#CC[C@H](C1CCCC1)n1cc(-c2ncnc3[nH]ccc23)cn1` [Ruxolitinib, reference compound], for which the IC50 amounted to 80.4 ± 2.33 µM with L929 fibroblasts (Mus musculus, L929, 48 h); 25 ± 1.3 µM in the series with HeLa cells [1] (Homo sapiens, HeLa, read-out: IC50 HeLa, MTT, 48 h); 25 ± 1.25 µM with HeLa cells [1] (read-out: IC50 HeLa, MTT); 34.6 ± 2.56 µM in the series on HepG2 cells (Homo sapiens, HepG2, 48 h); 68.63 ± 0.19 µM in [2] (Homo sapiens, SH-SY5Y); 89.7 ± 1.98 µM in the series with HEK-293T cells (Homo sapiens, HEK-293T). Besides, in series [5], the viability at 48 h, 25 µM was 63.5 ± 2.17%.
In the case of `CC1CCCC2(C)CC3OC(=O)C(CN4CCN(c5ccccc5)CC4)C3C3OC132` (stereo not drawn) [SL10], the IC50 in the series on L929 fibroblasts (MTT, 48 h) was determined as 25.4 µM; on JAK2 it was 0.0127 µM; in the series with HeLa cells [1] (read-out: IC50 HeLa, MTT), 8.47 ± 0.74 µM; in the series with HepG2 cells (MTT, 48 h), 19.7 µM; in series [2] (MTT) it was 23.1 µM; in the series with HEK-293T cells (MTT), 14.5 ± 0.74 µM. Moreover, the “intracellular ROS level relative to control” value in the series on HeLa cells [3] (setting [6]) is given as “approximately 1.4 fold”. The early apoptosis in the series with HeLa cells [4] (setting [7]) is 56.39 ± 2.21%. In addition, in the series on HeLa cells [4] (setting [7]), the late apoptosis was 11.61 ± 0.99%. The viable cells in the series with HeLa cells [4] (setting [7]) is on record as 31.30 ± 2.21%.
On to `COc1ccc(CN2CC3C(=O)OC4CC5(C)CCCC(C)C5(O)C2C43)cc1OC` (stereo not drawn) [SL8], for which the IC50 is 92.6 ± 2.87 µM with L929 fibroblasts (MTT, 48 h); 0.0871 ± 0.0026 µM on JAK2; 88.2 µM with HeLa cells [1] (read-out: IC50 HeLa, MTT); 42.6 ± 2.14 µM in the series with HepG2 cells (MTT, 48 h); 59.6 ± 2.84 µM in series [2] (MTT); 90.7 ± 1.61 µM in the series on HEK-293T cells (MTT).
On to `OO` [H2O2, hydrogen peroxide, reference compound], for which, in the series on HeLa cells [3] (200 µM), the “intracellular ROS level relative to control” value is given as “approximately 1.7 fold”.
For `O=C1O[C@H]([C@@H](O)CO)C(O)=C1O` [Vitamin C, L-ascorbic acid, reference compound], the “intracellular ROS level relative to control” value in the series with HeLa cells [3] (200 µM) is given as “about 0.8 fold”.
